Measurements: article PMC10065799, “High-throughput profiling of sequence recognition by tyrosine kinases and SH2 domains using bacterial peptide display” (eLife, 2023)

Legend:
Assay in all cases: pTyr-Var library bacterial peptide display kinase screen (enrichment scores)
c-Src kinase domain = c-Src kinase domain (Homo sapiens, UniProt P12931); type: biochemical; details: for Screen: sheet "Src";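 on screen: log2 fold change in enrichment of variant over reference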
EPHB2 kinase domain = type: biochemical, human; details: sheet EPHB2; effect of variant peptide relative to its reference peptide in the pTyr-Var library screen (enrichment scores)
c-Abl kinase domain = target: T1, c-Abl kinase domain (Mus musculus, UniProt P00520); type: biochemical;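 further: log2 fold change in enrichment of variant over reference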
T1 sequence (P00520 242-493 limits assumed): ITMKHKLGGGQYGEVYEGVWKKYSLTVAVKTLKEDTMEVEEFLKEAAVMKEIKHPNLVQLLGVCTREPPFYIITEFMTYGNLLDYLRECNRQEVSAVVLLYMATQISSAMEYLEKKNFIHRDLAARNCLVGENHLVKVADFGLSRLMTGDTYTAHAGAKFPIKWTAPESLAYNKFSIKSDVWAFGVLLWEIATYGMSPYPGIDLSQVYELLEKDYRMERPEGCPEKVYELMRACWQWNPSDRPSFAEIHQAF

EPHB1 kinase domain = type: biochemical, human; details: for Screen: sheet EPHB1, effect of the variant peptide relative to its reference peptide in the pTyr-Var library screen (enrichment scores); for Screen (variant relative to reference peptide, measured in the pTyr-Var library screen): sheet "EPHB1", variant seq vs reference seq, bacterial peptide display enrichment
Fer kinase domain = type: biochemical, mouse; details: sheet "Fer"
[1] = variant peptide versus its reference peptide in the pTyr-Var library screen
[2] = sheet "Abl", effect of variant peptide relative to its reference peptide in pTyr-Var library screen (enrichment)
[3] = fig5-data2, sheet "Abl", Screen for the variant/reference peptide pair, pTyr-Var library
[4] = effect of the variant peptide relative to its reference peptide in the pTyr-Var library screen
[5] = value of the variant peptide against its reference peptide in the pTyr-Var library screen with Fer
[6] = variant peptide relative to its reference peptide, pTyr-Var library screen enrichment

Sequence: ADARMYGVLPR [PLP1_Y207_W212R]
- Screen (c-Src kinase domain; [1]): -3.205
- Screen (EPHB2 kinase domain): -2.437

Sequence: AVDDKYSRREE [SART1_Y685_I681V]
- Screen (c-Abl kinase domain; [2]): 0.5221

Sequence: CEAVEYLESKQ [BTK_Y511_M509V]
- Screen (c-Abl kinase domain; [3]): 1.602

Sequence: CEETFYTMKMN [MASP2_Y401_V405M]
- Screen (c-Src kinase domain; [4]): 0.9168

Sequence: CGTPDYIDPEI [PRKCG_Y521_A523D]
- Screen (c-Abl kinase domain; [3]): -0.1317

Sequence: DAHFTYSRFPW [LY75_Y888_D884A_YF]
- Screen (EPHB1 kinase domain): -0.9728
- Screen (c-Src kinase domain; [4]): 0.1806
- Screen (EPHB2 kinase domain): -0.5554

Sequence: DCAAIYGNEPD [AKR1A1_Y50_E55D]
- Screen (c-Src kinase domain; [4]): 0.2268

Sequence: DFCDLYGGEKF [PTPN11_Y66_Y63C_YF]
- Screen (c-Src kinase domain; [1]): -0.008516

Sequence: DFFDLYGGEKL [PTPN11_Y66_F71L_YF]
- Screen (c-Abl kinase domain; [3]): -1.348
- Screen (c-Src kinase domain; [1]): 0.4429

Sequence: DISEPYEVFRI [IRF8_Y107_K108E_YF]
- Screen (Fer kinase domain; [5]): 4.437
- Screen (c-Src kinase domain; [4]): 2.852

Sequence: DKATEYSQFMR [MAX_Y70_I71S_YF]
- Screen (c-Abl kinase domain; [3]): -0.2428

Sequence: DLDFTYIFPNI [PTEN_Y27_L25F_YF]
- Screen (EPHB1 kinase domain): -1.115
- Screen (c-Src kinase domain; [1]): -0.8557

Sequence: DRLASYLDKLR [KRT12_Y139_V143L]
- Screen (c-Abl kinase domain; [3]): 0.402

Sequence: DTFDPYLDIAL [USP36_Y268_V271I_YF]
- Screen (Fer kinase domain; [6]): -0.4655

Sequence: EAIAKYDLKAT [GRB2_Y7_F9L]
- Screen (c-Abl kinase domain; [3]): -1.289

Sequence: EALDFYGEVRT
- Enrichment score (mean) (c-Src kinase domain; pTyr-Var library screen with c-Src, sheet "Src substrates": annotated Src substrate sites, 11-residue peptide SITE_+/-5_AA, mean): 1.015

Sequence: EPSLVYMVTKI [CPS1_Y768_D767V]
- Screen (Fer kinase domain; [5]): 1.098

Sequence: ERIEFYELNKK [PMM2_Y145_D148N]
- Screen (c-Abl kinase domain; [3]): -0.6166

Sequence: ERRLIYASDPK [VPS13D_Y864_T865A]
- Screen (c-Abl kinase domain; [2]): -3.237

Sequence: FAANFYKLLGN [ROR2_Y646_D644N_YF]
- Screen (c-Abl kinase domain; [3]): 1.009

Sequence: FIATQYSLCPR [LBR_Y166_R169C_YF]
- Screen (c-Abl kinase domain; [3]): -1.302

Sequence: FKEIVYAVSSD [DCX_Y70_G67E]
- Screen (c-Src kinase domain; [4]): 2.95

Sequence: FLAVGYHKPRI [IDS_Y225_H229R]
- Screen (c-Abl kinase domain; [3]): -0.1841

Sequence: FQKNIYSEEPR [LMNA_Y211_L215P]
- Screen (c-Src kinase domain; [4]): -0.2654

Sequence: FQRITYHNWRH [PDE6B_Y556_R552Q_YF]
- Screen (c-Abl kinase domain; [3]): 0.8312

Sequence: FSIDFYRVGGH [NTRK2_Y707_T704I_YF]
- Screen (c-Abl kinase domain; [3]): -1.897

Sequence: GFILMYDITNK [RAB3C_Y110_E115K]
- Screen (EPHB2 kinase domain): -0.5126

Sequence: GSESDYIIMPN [SCARB1_Y133_V135I]
- Screen (variant relative to reference peptide, measured in the pTyr-Var library screen) (EPHB1 kinase domain): -0.2975
- Screen (EPHB2 kinase domain): -0.2465

Sequence: GVMLLYFGRFN [ADGRD1_Y85_T82M_YF]
- Screen (c-Abl kinase domain; [3]): 0.9615

Sequence: HDRNTYEKFLE [TF_Y666_G671E_YF]
- Screen (c-Src kinase domain; [1]): -1.841

Sequence: HRNNNYEPNLF [BRCA2_Y57_K53R]
- Screen (EPHB1 kinase domain): -0.3671

Sequence: HVSISYDIPLT [GAB1_Y307_P311L]
- Screen (c-Abl kinase domain; [3]): 1.089

Sequence: IDSTPYGQWFE [RPS8_Y109_R110G_YF]
- Screen (c-Src kinase domain; [1]): 3.305

Sequence: IEPCIYIPEDD [XPNPEP3_Y455_G453C]
- Screen (c-Abl kinase domain; [2]): -2.393

Sequence: IGHGSYAKVLL [PRKCZ_Y263_R260H]
- Screen (c-Abl kinase domain; [3]): 0.1947

Sequence: IMVFVYCRVFQ [ADRB2_Y219_S220C]
- Screen (c-Abl kinase domain; [3]): 1.764

Sequence: IPGGIYNADLN [CST4_Y35_D36N]
- Screen (c-Src kinase domain; [4]): -0.256

Sequence: IPTPAYQSLPA [PDCD6IP_Y727_S730L]
- Screen (c-Abl kinase domain; [3]): -0.8712

Sequence: KDQPDYKFQPR [SOX9_Y172_H169Q_YF]
- Screen (c-Abl kinase domain; [2]): -0.1662

Sequence: KFEDVYVRICL [B3GALNT1_Y269_G271R]
- Screen (Fer kinase domain; [5]): -2.092
- Screen (c-Src kinase domain; [4]): -2.417

Sequence: KKLAEYGPQGK [CLCA1_Y147_R152K]
- Screen (c-Abl kinase domain; [3]): 0.7729

Sequence: KMKGDYFRSLA [YWHAG_Y130_Y133S_YF]
- Screen (c-Abl kinase domain; [2]): -4.108
- Screen (c-Src kinase domain; [1]): -2.206

Sequence: KRGIDYILWHM [FRMD1_Y225_R228W]
- Screen (c-Abl kinase domain; [3]): 2.918

Sequence: KRRGPYEMSPS [PLPP7_Y172_T174M]
- Screen (c-Abl kinase domain; [3]): -0.6744

Sequence: KSMFVYCTPNK [ATP2A2_Y497_S495F]
- Screen (c-Abl kinase domain; [3]): 1.832

Sequence: KSSDVYVSFDC [SORL1_Y136_Y141C_YF]
- Screen (Fer kinase domain; [6]): -2.678
- Screen (variant relative to reference peptide, measured in the pTyr-Var library screen) (EPHB1 kinase domain): -0.2812
- Screen (c-Src kinase domain; [1]): -0.3615

Sequence: KVALVYGQMNQ [ATP5F1B_Y269_E274Q]
- Screen (c-Src kinase domain; [4]): 0.6915

Sequence: LAIERYVVVSK [RHO_Y136_C140S]
- Screen (EPHB2 kinase domain): 0.1273

Sequence: LAIEWYVVVCK [RHO_Y136_R135W]
- Screen (EPHB1 kinase domain): 0.5887

Sequence: LEVETYRRLLD [KRT12_Y429_I426V]
- Screen (c-Abl kinase domain; [3]): 0.412
